Consider nine molecules from US9522913B2, “Pesticidally active bicyclic heterocycles with sulphur containing substituents” (Syngenta Participations AG, priority 2013, dated 2016).

What all share (type): in vivo
For test [1], the system named is Diabrotica balteata (corn root worm). Description: Activity against Diabrotica balteata, larvicide, feeding/residual contact activity, preventive (Example B2). To be noted: 120 h, maize sprouts sprayed, L2 larvae, 5 days incubation, read-out: activity (larval mortality, growth regulation). As for the experimental part:
(§1) (Larvicide, Feeding/Residual Contact Activity, Preventive)
Maize sprouts, placed on an agar layer in 24-well micro titer plates (MTP) are treated with test solutions by spraying. After drying, the MTPs are infested with larvae (L2, 6-10 per well). After an incubation period of 5 days, samples are checked for larval mortality, and growth regulation.

Test [2] relates to Spodoptera littoralis (Egyptian cotton leaf worm). Description: Activity against Spodoptera littoralis, larvicide, feeding/residual contact activity, preventive (Example B1). To be noted: foliar, 72 h, cotton leaf discs sprayed, L1 larvae, 3 days after treatment, read-out: activity (mortality, repellent effect, feeding behaviour, growth regulation). From the text: (Larvicide, Feeding/Residual Contact Activity, Preventive) Cotton leaf discs are placed on agar in a 24-well microtiter plate and sprayed with test solutions. After drying, the leaf discs are infested with 5 L1 larvae. The samples are checked for mortality, repellent effect, feeding behaviour, and growth regulation 3 days after treatment (DAT).

Test [3] deals with Bemisia tabaci (cotton white fly). Description: Activity against Bemisia tabaci, adulticide contact activity, preventative (Example B7). To be noted: foliar, 168 h, cotton leaf discs sprayed, adult white flies, 7 DAT. As for the experimental part:
(Adulticide Contact Activity, Preventative), Adult
Cotton leaf discs were placed on agar in a 24-well microtiter plate and sprayed with test solutions. After drying, the leaf discs were infested with adult white flies. After an incubation period of 7 DAT, samples were checked for mortality and special effects (e.g. phytotoxicity).

Test [4] concerns Myzus persicae (green peach aphid). Description: Activity against Myzus persicae, feeding/residual contact activity, preventive, mixed population (Example B5). To be noted: foliar, 144 h, sunflower leaf discs sprayed, mixed-age aphids, 6 DAT. On the procedure:
(Feeding/Residual Contact Activity, Preventive), Mixed Population
Sunflower leaf discs were placed on agar in a 24-well microtiter plate and sprayed with test solutions.
After drying, the leaf discs were infested with an aphid population of mixed ages. After an incubation period of 6 DAT, samples were checked for mortality and special effects (e.g. phytotoxicity).

Test [5] has as its system Spodoptera littoralis (Egyptian cotton leaf worm). Description: Activity against Spodoptera littoralis, systemic activity (Example B3). To be noted: 120 h, systemic via lettuce roots in agar, 5 days after infestation, read-out: activity (mortality, repellent effect, feeding behavior, growth regulation). From the text:
Test compounds were applied by pipette into 24 well plates and mixed with agar. Lettuce seeds were placed on the agar and the multi well plate is closed by another plate which contains also agar. After 7 days the roots have absorbed the compound and the lettuce has grown into the lid plate. The lettuce leaves were now cut off into the lid plate. Spodoptera eggs were pipetted through a plastic stencil on a humid gel blotting paper and the plate closed with it. The samples are checked for mortality, repellent effect, feeding behavior, and growth regulation 5 days after infestation.

Test [6] relates to Rhopalosiphum padi (bird cherry oat aphid). Description: Seed treatment activity against Rhopalosiphum padi on barley (Example B8). To be noted: after 28 days, initial loading of 0.3 mg a.i. per seed. As for the experimental part: Seed Treatment Activity Against Rhopalosiphum padi (Bird Cherry Oat Aphid) (Seed Treatment Systemic/Feeding Activity on Barley, Preventive, Initial and Residual Activity (Infestation 2 and 4 Weeks after Sowing)), Mixed Population
A treated barley seed is sown in a 350 ml pot filled with soil. Two weeks after sowing phytotoxicity is estimated and expressed in percentage compared to the control. Furthermore the barley seedling is infested with an aphid population of mixed stages. After an incubation period of seven days the grade of efficacy compared to the control is estimated and expressed in percentage. Treatments with all replicates having a level of efficacy over 90% are re-infested with aphids 28 days after sowing for determination of residual activity. Assessment procedures remain the same as described above.

Test [7] relates to Myzus persicae (green peach aphid). Description: Activity against Myzus persicae, systemic/feeding activity, curative, mixed population (Example B6). To be noted: 144 h, roots of infested pea seedlings in test solution, 6 days after introduction. From the text:
(Systemic/Feeding Activity, Curative), Mixed Population
Roots of pea seedlings, infested with an aphid population of mixed ages, were placed directly in the test solutions. 6 days after introduction, samples were checked for mortality and special effects on the plant.

Test [8] has as its system Plutella xylostella (diamond back moth). Description: Activity against Plutella xylostella, larvicide, feeding/residual contact activity, preventive (Example B4). To be noted: 120 h, artificial diet, L2 larvae, 5 days incubation, read-out: activity (larval mortality, antifeedant, growth regulation). As for the experimental part:
as §1
24-well microtiter plate (MTP) with artificial diet was treated with test solutions by pipetting. After drying, the MTPs were infested with L2 larvae (10-15 per well). After an incubation period of 5 days, samples were checked for larval mortality, antifeedant and growth regulation.

Test [9] relates to Aedes aegypti (yellow fever mosquito). Description: whole plant or invertebrate. To be noted: after 48 h, application rate of 200 ppm in ethanol, adult females, read-out: control of Aedes aegypti (mortality). As for the experimental part:
Test solutions, at an application rate of 200 ppm in ethanol, were applied to 12-well tissue culture plates. Once the deposits were dry, five, two to five days old adult female Aedes aegypti were added to each well, and sustained with a 10% sucrose solution in a cotton wool plug. Assessment of knockdown was made one hour after introduction, and mortality was assessed at 24 and 48 hours after introduction.

Turning to `CCS(=O)(=NC#N)c1cc(C(F)(F)F)cnc1-c1nc2cc(C(F)(F)F)cnc2n1C` (stereo not shown) [P1.2, [ethyl-[2-[3-methyl-6-(trifluoromethyl)imidazo[4,5-b]pyridin-2-yl]-5-(trifluoromethyl)-3-pyridyl]-oxo-λ^6sulfanylidene]cyanamide], the mortality at 400 ppm in test [1] and in test [2] was greater than 80% each time.

For the molecule `CCS(=N)(=O)c1cc(C(F)(F)F)cnc1-c1nc2cc(C(F)(F)F)cnc2n1C` (stereo not shown) [P1.4, ethyl-imino-[2-[3-methyl-6-(trifluoromethyl)imidazo[4,5-b]pyridin-2-yl]-5-(trifluoromethyl)-3-pyridyl]-oxo-λ^6-sulfane], the mortality at 400 ppm in [3], in test [4], in test [8] and in [2] was greater than 80% each time. For the same molecule, the mortality – broadly, the percentage killed – at 12.5 ppm in [5] was no less than 80%. Also, the “control of Rhopalosiphum padi (efficacy compared to the control)” value in test [6] is listed as “at least 80%”. In test [7], this molecule gave a mortality at 24 ppm of no less than 80%.

For `CCS(=O)(=NC(N)=O)c1cc(C(F)(F)F)cnc1-c1nc2cc(C(F)(F)F)cnc2n1C` (stereo not shown) [P1.5, [ethyl-[2-[3-methyl-6-(trifluoromethyl)imidazo[4,5-b]pyridin-2-yl]-5-(trifluoromethyl)-3-pyridyl]-oxo-λ^6sulfanylidene]urea], the mortality at 200 ppm in test [9] was no less than 80%. The mortality at 400 ppm in test [1] is greater than 80%.

In the case of `CCS(=O)(=NC(=O)C(F)(F)F)c1cc(C(F)(F)F)cnc1-c1nc2cc(C(F)(F)F)cnc2n1C` (stereo not shown) [P1.3, N-[ethyl-[2-[3-methyl-6-(trifluoromethyl)imidazo[4,5-b]pyridin-2-yl]-5-(trifluoromethyl)-3-pyridyl]-oxo-λ^6-sulfanylidene]-2,2,2-trifluoro-acetamide], the mortality at 200 ppm in [9] was no less than 80%. Moreover, the mortality at 400 ppm in [4], in test [1], in test [8] and in test [2] was greater than 80% throughout. The mortality at 12.5 ppm in test [5] is no less than 80%. The molecule further showed a mortality at 24 ppm in [7] of no less than 80%.

Turning to `CCS(=O)(=NC)c1cc(C(F)(F)F)cnc1-c1nc2cc(C(F)(F)F)cnc2n1C` (stereo not shown) [P1.6, ethyl-methylimino-[2-[3-methyl-6-(trifluoromethyl)imidazo[4,5-b]pyridin-2-yl]-5-(trifluoromethyl)-3-pyridyl]-oxo-λ^6-sulfane], the mortality at 400 ppm in [3], in [4], in [1], in [8] and in test [2] was greater than 80% throughout. In addition, in test [9], the mortality at 200 ppm is no less than 80%. For the same molecule, in test [5], the mortality at 12.5 ppm is no less than 80%. This molecule showed a mortality at 24 ppm in test [7] of no less than 80%.

For `CCS(=O)(=NC=O)c1cc(C(F)(F)F)cnc1-c1nc2cc(C(F)(F)F)cnc2n1C` (stereo not shown) [P1.10, N-[ethyl-[2-[3-methyl-6-(trifluoromethyl)imidazo[4,5-b]pyridin-2-yl]-5-(trifluoromethyl)-3-pyridyl]-oxo-λ^6sulfanylidene]formamide], the mortality at 400 ppm in test [3], in [4], in [8] and in [2] was greater than 80% in each case. Besides, the mortality at 12.5 ppm in test [5] is no less than 80%. In addition, the mortality at 24 ppm in [7] was no less than 80%.

For `CCC(=O)N=S(=O)(CC)c1cc(C(F)(F)F)cnc1-c1nc2cc(C(F)(F)F)cnc2n1C` (stereo not shown) [P1.7, N-[ethyl-[2-[3-methyl-6-(trifluoromethyl)imidazo[4,5-b]pyridin-2-yl]-5-(trifluoromethyl)-3-pyridyl]-oxo-λ^6-sulfanylidene]propanamide], the mortality at 400 ppm in test [3], in [4], in test [8] and in test [2] was greater than 80% each time. For the same molecule, the mortality at 200 ppm in [9] is no less than 80%. Besides, the mortality at 12.5 ppm in test [5] was no less than 80%.

For the molecule `CC/S(=N\C#N)c1cc(C(F)(F)F)cnc1-c1nc2cc(C(F)(F)F)cnc2n1C` (stereo not shown) [P1.1, [ethyl-[2-[3-methyl-6-(trifluoromethyl)imidazo[4,5-b]pyridin-2-yl]-5-(trifluoromethyl)-3-pyridyl]-λ^4-sulfanylidene]cyanamide], the mortality at 400 ppm in test [1] was greater than 80%.

Regarding `CCS(=O)(=NC(=O)OC)c1cc(C(F)(F)F)cnc1-c1nc2cc(C(F)(F)F)cnc2n1C` (stereo not shown) [P1.8, methyl N-[ethyl-[2-[3-methyl-6-(trifluoromethyl)imidazo[4,5-b]pyridin-2-yl]-5-(trifluoromethyl)-3-pyridyl]-oxo-λ^6-sulfanylidene]carbamate], the mortality at 400 ppm in [3], in test [4], in test [8] and in test [2] was greater than 80% in each case. The mortality at 200 ppm in [9] was no less than 80%. The mortality at 12.5 ppm in [5] was no less than 80%. Moreover, in [7], the mortality at 24 ppm is no less than 80%.
